Results reported in patent US20120255051A1, “HERBICIDE TOLERANT PLANTS” (priority 2009, published 2012).
Where “and” joins values, the source holds several entries; their conditions need not be identical. Equal values may be shown once.

System: Brassica plants comprising mutant AHAS alleles
Test: Field trial, pre-planting treatment (0, 10, 20, 30 g a.i./ha), two locations in Canada: ERG, EST1, EST2, PPTOX, VIG1, VIG2, VIG3 scores
Type: in vivo, Brassica napus
Excerpt: Tests were set up and conducted to asses the growth and performance of plants comprising AHAS full knock-out alleles, and to further analyze the correlation between the presence of full knockout and missense AHAS genes in Brassica plants and plant growth and herbicide tolerance of the Brassica plants in the field. To this end, the Brassica plants identified in Example 1 and 2 were backcrossed two times with an elite parent line, and subsequently selfed twice to obtain homozygous plants (BC2S2). Plants were grown as row plots in a split plot design with three replicates (main plots=herbicide treatments, subplots=genotypes) at two locations in Canada. Treatment pre-planting was carried out on the soil about two days before sowing with a dose of 0 (treatment A), 10 (treatment B), 20 (treatment C) or 30 (treatment D) g a.i./ha of thiencarbazone methyl. Herbicide tolerance was measured by scoring for different parameters. The parameter emergence (ERG) was scored at the cotyledon stage on a scale 1-9, where 1 means late emergence and 9 means early emergence. Establishment was scored 14 days after sowing (EST1) and 21 days after sowing (EST2). Scores were from 1 to 9, where 1 is the worst establishment (least plants that emerged), and 9 is the best establishment (most plants emerged). Phytotoxicity (PPTOX) was determined after establishment. Plants were evaluated on a scale of 1 to 9, where 1=completely yellowing, 5=50% of plant is yellow and 9=no yellowing. The vigor scores (see above) were determined at 1-2 leaf stage (VIG1), 7 days after VIG1 (VIG2) and 14 days after VIG1 (VIG3). The average values (Av) and standard deviations (SD) of the scores for the different parameters are represented in Table 7a-g.
Further, the contribution of the knock-out allele to herbicide tolerance conferred by the missense allele was calculated. First, the scores were corrected for a possible effect of the growth per se, independent of herbicide treatment. To this end, the scores for treatments B, C and D were divided by the scores for treatment A for the same genotype and for the same parameter (corrected herbicide tolerance scores). Next, the effect of the knock-out allele to these corrected herbicide tolerance scores obtained by the missense allele was calculated. Therefore, the corrected herbicide tolerance scores for the missense—knock-out allele combination was divided by the corrected herbicide tolerance scores for the missense allele—wild-type combination. In case the knock-out allele has no effect on herbicide tolerance conferred by the missense allele, this ratio should be 1. In case the knock-out allele positively contributes to the herbicide tolerance conferred by the missense allele, this ratio should be higher than 1. The results for the contribution of the knock-out allele to herbicide tolerance conferred by the missense allele as calculated above are shown in table 8.

[1] = Location B, treatment D 30 g a.i./ha pre-planting, ratio >1 = positive contribution

## COC(=O)c1csc(C)c1S(=O)(=O)NC(=O)n1nc(OC)n(C)c1=O [thiencarbazone-methyl, methyl 4-[(4,5-dihydro-3-methoxy-4-methyl-5-oxo-1H-1,2,4-triazol-1-yl)carbonylsulfamoyl]-5-methylthiophene-3-carboxylate]
[1]
  relative contribution of HETO104 (AHAS3 KO) to herbicide tolerance conferred by HETO108 (AHAS1 missense): EST2: 0.95
  relative contribution of HETO104 (AHAS3 KO) to herbicide tolerance conferred by HETO108 (AHAS1 missense): PPTOX: 1.44
  relative contribution of HETO104 (AHAS3 KO) to herbicide tolerance conferred by HETO108 (AHAS1 missense): VIG1: 1.40
  relative contribution of HETO104 (AHAS3 KO) to herbicide tolerance conferred by HETO108 (AHAS1 missense): VIG2: 1.38
  relative contribution of HETO104 (AHAS3 KO) to herbicide tolerance conferred by HETO108 (AHAS1 missense): VIG3: 1.34
  relative contribution of HETO112 (AHAS1 KO) to herbicide tolerance conferred by HETO111 (AHAS3 missense): ERG: 0.88
  relative contribution of HETO112 (AHAS1 KO) to herbicide tolerance conferred by HETO111 (AHAS3 missense): EST1: 0.97
  relative contribution of HETO112 (AHAS1 KO) to herbicide tolerance conferred by HETO111 (AHAS3 missense): EST2: 0.92
  relative contribution of HETO112 (AHAS1 KO) to herbicide tolerance conferred by HETO111 (AHAS3 missense): PPTOX: 0.76
  relative contribution of HETO112 (AHAS1 KO) to herbicide tolerance conferred by HETO111 (AHAS3 missense): VIG1: 0.75
  relative contribution of HETO112 (AHAS1 KO) to herbicide tolerance conferred by HETO111 (AHAS3 missense): VIG2: 1.07
  relative contribution of HETO112 (AHAS1 KO) to herbicide tolerance conferred by HETO111 (AHAS3 missense): VIG3: 1.11
Plants AHAS1 HETO108 / AHAS3 HETO104, 10 g a.i./ha (treatment B) pre-planting, Location A
  vigor3 (VIG3) score, Av: 8.00
Plants AHAS1 HETO108 / AHAS3 HETO104, 10 g a.i./ha (treatment B) pre-planting, Location B
  vigor3 (VIG3) score, Av: 5.33
Plants AHAS1 HETO108 / AHAS3 HETO104, 20 g a.i./ha (treatment C) pre-planting, Location A
  vigor3 (VIG3) score, Av: 6.67
Plants AHAS1 HETO108 / AHAS3 HETO104, 20 g a.i./ha (treatment C) pre-planting, Location B
  vigor3 (VIG3) score, Av: 6.67
Plants AHAS1 HETO108 / AHAS3 HETO104, 30 g a.i./ha (treatment D) pre-planting, Location A
  vigor3 (VIG3) score, Av: 6.67
Plants AHAS1 HETO108 / AHAS3 HETO104, 30 g a.i./ha (treatment D) pre-planting, Location B
  vigor3 (VIG3) score, Av: 6.00
Plants AHAS1 HETO108 / AHAS3 HETO111, 10 g a.i./ha (treatment B) pre-planting, Location A
  vigor3 (VIG3) score, Av: 8.33
Plants AHAS1 HETO108 / AHAS3 HETO111, 10 g a.i./ha (treatment B) pre-planting, Location B
  vigor3 (VIG3) score, Av: 7.67
Plants AHAS1 HETO108 / AHAS3 HETO111, 20 g a.i./ha (treatment C) pre-planting, Location A
  vigor3 (VIG3) score, Av: 7.00
Plants AHAS1 HETO108 / AHAS3 HETO111, 20 g a.i./ha (treatment C) pre-planting, Location B
  vigor3 (VIG3) score, Av: 6.67
Plants AHAS1 HETO108 / AHAS3 HETO111, 30 g a.i./ha (treatment D) pre-planting, Location A
  vigor3 (VIG3) score, Av: 8.00
Plants AHAS1 HETO108 / AHAS3 HETO111, 30 g a.i./ha (treatment D) pre-planting, Location B
  vigor3 (VIG3) score, Av: 4.33
Plants AHAS1 HETO108 / AHAS3 WT, 10 g a.i./ha (treatment B) pre-planting, Location A
  vigor3 (VIG3) score, Av: 8.33 and 7.67
Plants AHAS1 HETO108 / AHAS3 WT, 10 g a.i./ha (treatment B) pre-planting, Location B
  vigor3 (VIG3) score, Av: 5.33 and 6.00
Plants AHAS1 HETO108 / AHAS3 WT, 20 g a.i./ha (treatment C) pre-planting, Location A
  vigor3 (VIG3) score, Av: 7.33 and 7.00
Plants AHAS1 HETO108 / AHAS3 WT, 20 g a.i./ha (treatment C) pre-planting, Location B
  vigor3 (VIG3) score, Av: 6.33 and 8.00
Plants AHAS1 HETO108 / AHAS3 WT, 30 g a.i./ha (treatment D) pre-planting, Location A
  vigor3 (VIG3) score, Av: 7.00 and 7.33
Plants AHAS1 HETO108 / AHAS3 WT, 30 g a.i./ha (treatment D) pre-planting, Location B
  vigor3 (VIG3) score, Av: 5.33
Plants AHAS1 HETO112 / AHAS3 HETO111, 10 g a.i./ha (treatment B) pre-planting, Location A
  vigor3 (VIG3) score, Av: 8.00
Plants AHAS1 HETO112 / AHAS3 HETO111, 10 g a.i./ha (treatment B) pre-planting, Location B
  vigor3 (VIG3) score, Av: 7.33
Plants AHAS1 HETO112 / AHAS3 HETO111, 20 g a.i./ha (treatment C) pre-planting, Location A
  vigor3 (VIG3) score, Av: 7.00
Plants AHAS1 HETO112 / AHAS3 HETO111, 20 g a.i./ha (treatment C) pre-planting, Location B
  vigor3 (VIG3) score, Av: 5.67
Plants AHAS1 HETO112 / AHAS3 HETO111, 30 g a.i./ha (treatment D) pre-planting, Location A
  vigor3 (VIG3) score, Av: 7.67
Plants AHAS1 HETO112 / AHAS3 HETO111, 30 g a.i./ha (treatment D) pre-planting, Location B
  vigor3 (VIG3) score, Av: 5.67
Plants AHAS1 HETO112 / AHAS3 WT, 10 g a.i./ha (treatment B) pre-planting, Location A
  vigor3 (VIG3) score, Av: 1.00
Plants AHAS1 HETO112 / AHAS3 WT, 10 g a.i./ha (treatment B) pre-planting, Location B
  vigor3 (VIG3) score, Av: 1.00
Plants AHAS1 HETO112 / AHAS3 WT, 20 g a.i./ha (treatment C) pre-planting, Location A
  vigor3 (VIG3) score, Av: 1.00
Plants AHAS1 HETO112 / AHAS3 WT, 20 g a.i./ha (treatment C) pre-planting, Location B
  vigor3 (VIG3) score, Av: 1.00
Plants AHAS1 HETO112 / AHAS3 WT, 30 g a.i./ha (treatment D) pre-planting, Location A
  vigor3 (VIG3) score, Av: 1.00
Plants AHAS1 HETO112 / AHAS3 WT, 30 g a.i./ha (treatment D) pre-planting, Location B
  vigor3 (VIG3) score, Av: 1.00
Plants AHAS1 WT / AHAS3 HETO104, 10 g a.i./ha (treatment B) pre-planting, Location A
  vigor3 (VIG3) score, Av: 1.00
Plants AHAS1 WT / AHAS3 HETO104, 10 g a.i./ha (treatment B) pre-planting, Location B
  vigor3 (VIG3) score, Av: 1.00
Plants AHAS1 WT / AHAS3 HETO104, 20 g a.i./ha (treatment C) pre-planting, Location A
  vigor3 (VIG3) score, Av: 1.00
Plants AHAS1 WT / AHAS3 HETO104, 20 g a.i./ha (treatment C) pre-planting, Location B
  vigor3 (VIG3) score, Av: 1.00
Plants AHAS1 WT / AHAS3 HETO104, 30 g a.i./ha (treatment D) pre-planting, Location A
  vigor3 (VIG3) score, Av: 1.00
Plants AHAS1 WT / AHAS3 HETO104, 30 g a.i./ha (treatment D) pre-planting, Location B
  vigor3 (VIG3) score, Av: 1.00
Plants AHAS1 WT / AHAS3 HETO111, 10 g a.i./ha (treatment B) pre-planting, Location A
  vigor3 (VIG3) score, Av: 7.67 and 7.00
Plants AHAS1 WT / AHAS3 HETO111, 10 g a.i./ha (treatment B) pre-planting, Location B
  vigor3 (VIG3) score, Av: 7.33
Plants AHAS1 WT / AHAS3 HETO111, 20 g a.i./ha (treatment C) pre-planting, Location A
  vigor3 (VIG3) score, Av: 6.67
Plants AHAS1 WT / AHAS3 HETO111, 20 g a.i./ha (treatment C) pre-planting, Location B
  vigor3 (VIG3) score, Av: 6.00
Plants AHAS1 WT / AHAS3 HETO111, 30 g a.i./ha (treatment D) pre-planting, Location A
  vigor3 (VIG3) score, Av: 6.67 and 6.33
Plants AHAS1 WT / AHAS3 HETO111, 30 g a.i./ha (treatment D) pre-planting, Location B
  vigor3 (VIG3) score, Av: 4.67 and 5.33
Plants AHAS1 WT / AHAS3 WT, 10 g a.i./ha (treatment B) pre-planting, Location A
  vigor3 (VIG3) score, Av: 1.00
Plants AHAS1 WT / AHAS3 WT, 10 g a.i./ha (treatment B) pre-planting, Location B
  vigor3 (VIG3) score, Av: 1.33
Plants AHAS1 WT / AHAS3 WT, 20 g a.i./ha (treatment C) pre-planting, Location A
  vigor3 (VIG3) score, Av: 1.00
Plants AHAS1 WT / AHAS3 WT, 20 g a.i./ha (treatment C) pre-planting, Location B
  vigor3 (VIG3) score, Av: 1.00
Plants AHAS1 WT / AHAS3 WT, 30 g a.i./ha (treatment D) pre-planting, Location A
  vigor3 (VIG3) score, Av: 1.00
Plants AHAS1 WT / AHAS3 WT, 30 g a.i./ha (treatment D) pre-planting, Location B
  vigor3 (VIG3) score, Av: 1.00
